According to ChEMBL document CHEMBL3120156, “Discovery and development of simeprevir (TMC435), a HCV NS3/4A protease inhibitor” (J Med Chem, 2014):

Key:
[1] = Plasma clearance in rat; type: ADME, organism-based
[2] = Oral bioavailability in rat; type: ADME, organism-based; conditions: in vivo
[3] = Metabolic stability in rat bile assessed as unchanged drug level at 1 mg/kg, iv after 1 hr; type: ADME, organism-based; parameters: dose 1 mg/kg, route intravenous; conditions: read-out: Stability
[4] = tested on: Hepatitis C virus; assay: Antiviral activity against Hepatitis C virus genotype 1b infected in Huh7-clone ET Rep cells assessed as inhibition of HCV replication by luciferase assay; type: functional, organism-based, Hepacivirus hominis
[5] = Inhibition of Hepatitis C virus genotype 1a full-length NS3/4A protease; parameters: species or system Hepatitis C virus subtype 1a
[6] = tested on: PBMC; assay: Cytostatic activity against staphylococcal enterotoxin B-stimulated human PBMC assessed as decrease in cell proliferation after 7 hrs by [3H]thymidine incorporation assay; type: cell-based; conditions: read-out: CS50 (the source's name)
[7] = tested on: Hepatitis C virus; assay: Antiviral activity against Hepatitis C virus infected in po dosed patient assessed as log10 reduction of HCV RNA level administered qd for 5 days; type: functional, Hepacivirus hominis
[8] = Cytotoxicity against staphylococcal enterotoxin B-stimulated human PBMC assessed as decrease in cell viability after 72 hrs by WST-1 assay; type: cell-based
[9] = Protein binding in plasma (unknown origin); type: ADME, cell-free; conditions: read-out: PPB
[10] = Inhibition of Hepatitis C virus genotype 1b NS3/4A protease; parameters: species or system Hepatitis C virus subtype 1b
[11] = Volume of distribution at steady state in Sprague-Dawley rat at 2 mg/kg, iv administered as single dose with 20% Hydroxypropyl-beta-cyclodextrine; type: ADME, organism-based; parameters: dose 2 mg/kg, route intravenous; conditions: in vivo, read-out: Vdss
[12] = Apparent permeability of the compound from apical to basolateral side of human Caco2 cells; type: ADME, cell-based; conditions: Caco-2
[13] = Intrinsic clearance in human liver microsomes; type: ADME; conditions: read-out: CLH
[14] = Drug metabolism in human liver microsomes at 5 uM at 37 degC after 15 mins; type: ADME; conditions: read-out: Drug metabolism
[15] = tested on: Hepatitis C virus; assay: Antiviral activity against Hepatitis C virus genotype 1a; type: functional, organism-based, Hepacivirus hominis; conditions: subtype 1a
[16] = tested on: Hepatitis C virus; assay: Antiviral activity against Hepatitis C virus genotype 1 infected in human patient assessed as log10 reduction of viral RNA level administered as oral dose measured after 2 days; type: functional, Hepacivirus hominis
[17] = Ratio of drug level in liver to plasma in Sprague-Dawley rat at 10 mg/kg, po administered with 50% PEG400 containing 2.5% of Vitamin E-TPGS measured after 6 hrs; type: ADME, organism-based; parameters: dose 10 mg/kg, route oral; conditions: liver and plasma
[18] = Tmax in Sprague-Dawley rat at 10 mg/kg, po administered with 50% PEG400 containing 2.5% of Vitamin E-TPGS; type: ADME, organism-based; parameters: dose 10 mg/kg, route oral; conditions: in vivo
[19] = Ratio of drug level in liver to plasma in Sprague-Dawley rat at 2 mg/kg, iv administered as single dose with 20% Hydroxypropyl-beta-cyclodextrine measured after 6 hrs; type: ADME, organism-based; parameters: dose 2 mg/kg, route intravenous; conditions: liver and plasma
[20] = Half life in Sprague-Dawley rat at 10 mg/kg, po administered with 50% PEG400 containing 2.5% of Vitamin E-TPGS; type: ADME, organism-based; parameters: dose 10 mg/kg, route oral; conditions: in vivo
[21] = AUC in Sprague-Dawley rat at 10 mg/kg, po administered with 50% PEG400 containing 2.5% of Vitamin E-TPGS; type: ADME, organism-based; parameters: dose 10 mg/kg, route oral; conditions: plasma
[22] = Clearance in Sprague-Dawley rat at 2 mg/kg, iv administered as single dose with 20% Hydroxypropyl-beta-cyclodextrine; type: ADME, organism-based; parameters: dose 2 mg/kg, route intravenous; conditions: in vivo
[23] = Cmax in Sprague-Dawley rat at 10 mg/kg, po administered with 50% PEG400 containing 2.5% of Vitamin E-TPGS; type: ADME, organism-based; parameters: dose 10 mg/kg, route oral; conditions: in vivo
[24] = Oral bioavailability in Sprague-Dawley rat at 10 mg/kg administered with 50% PEG400 containing 2.5% of Vitamin E-TPGS; type: ADME, organism-based; conditions: in vivo

Molecule | EC50 [4] [nM] | Ki [5] [nM] | further results
COc1ccc2c(O[C@@H]3C[C@H]4C(=O)N[C@]5(C(=O)NS(=O)(=O)C6CC6)C[C@H]5/C=C\CCCCN(C)C(=O)[C@@H]4C3)cc(-c3ccccc3)nc2c1 |  |  | clearance [1]: 46.5 mL/min/kg; bioavailability [2]: 2.5%; remaining at 1 h [3]: 95%
COc1cc(O[C@@H]2C[C@H]3C(=O)N[C@]4(C(=O)NS(=O)(=O)C5CC5)C[C@H]4/C=C\CCCCN(C)C(=O)N3C2)nc(-c2ccccc2)n1 | 84 |  | 
COc1ccc2c(O[C@@H]3C[C@H]4C(=O)N[C@]5(C(=O)O)C[C@H]5/C=C\CCCCN(C)C(=O)[C@@H]4C3)cc(-c3ccccc3)nc2c1 | 2.2 | 44 | 
COc1ccc2c(O[C@@H]3C[C@H]4C(=O)N[C@]5(C(=O)NS(=O)(=O)C6CC6)C[C@H]5/C=C\CCCCN(C)C(=O)[C@@H]4C3)cc(-c3nc(C(C)C)cs3)nc2c1C [SIMEPREVIR] | 7.8 | 0.36 | GI50 [6]: ≥ 10000 nM; FC [7]: 3.9; CC50 at 72 h [8]: ≥ 10000 nM; fraction unbound [9]: < 0.01; Ki [10]: 1.4 nM; EC90 [4]: 19 nM
COc1ccc2c(O[C@@H]3C[C@H]4C(=O)N[C@]5(C(=O)NS(=O)(=O)C6CC6)C[C@H]5/C=C\CCCCN(C)C(=O)N4C3)nc(-c3ccccc3)nc2c1C | 11 | 0.2 | Vd [11]: 1.1 L/kg; Papp A→B [12]: 26 ×10⁻⁶ cm/s; microsomal CLint [13]: 17 µL/min/mg
COc1ccc2c(O[C@H]3C[C@H]4C(=O)NCCCC/C=C\[C@@H]5C[C@@]5(C(=O)O)NC(=O)[C@@H]4C3)cc(-c3ccccc3)nc2c1 | > 10 | 260 | 
COc1ccc2c(O[C@@H]3C[C@H]4C(=O)N[C@]5(C(=O)O)C[C@H]5/C=C/CCCCC[C@H](NC(=O)OC5CCCC5)C(=O)N4C3)cc(-c3csc(NC(C)C)n3)nc2c1 [listing 1 of 2 here] | 1.63 |  | metabolised at 0.25 h, 5 µM [14]: 2.5%; EC50 [15]: 4 nM; Ki [10]: 0.66 nM
COc1ccc2c(O[C@@H]3C[C@H]4C(=O)N[C@]5(C(=O)NS(=O)(=O)C6CC6)C[C@H]5/C=C\CCCCN(N)C(=O)[C@@H]4C3)cc(-c3ccccc3)nc2c1 | 0.033 | 0.19 | 
COc1ccc2c(O[C@H]3C=C4C(=O)N(N)CCCC/C=C\[C@@H]5C[C@@]5(C(=O)O)NC(=O)C4C3)cc(-c3ccccc3)nc2c1 (stereo partly specified) | 5.4 | 15 | 
H-DDIVPC-OH |  | 71000 | 
COc1ccc(-c2nc(O[C@@H]3C[C@H]4C(=O)N[C@]5(C(=O)NS(=O)(=O)C6CC6)C[C@H]5/C=C\CCCCN(C)C(=O)N4C3)c3ccc(OC)c(C)c3n2)cc1 | 3 | 0.6 | Papp A→B [12]: 33 ×10⁻⁶ cm/s; microsomal CLint [13]: 8 µL/min/mg
COc1ccc2c(O[C@@H]3C[C@H]4C(=O)N[C@]5(C(=O)O)C[C@H]5/C=C\CCCCN(N)C(=O)[C@@H]4C3)cc(-c3ccccc3)nc2c1 | 7.6 | 6 | 
COc1ccc2c(O[C@@H]3C[C@H]4C(=O)N[C@]5(C(=O)O)C[C@H]5/C=C/CCCCC[C@H](NC(=O)OC5CCCC5)C(=O)N4C3)cc(-c3csc(NC(C)C)n3)nc2c1 [listing 2 of 2 here] |  |  | FC [16]: 2
COc1ccc2c(O[C@@H]3C[C@H]4C(=O)N[C@]5(C(=O)NS(=O)(=O)C6(C)CC6)C[C@H]5/C=C\CCCCCNC(=O)N4C3)cc(-c3nc(C(C)C)cs3)nc2c1 |  |  | Kp at 6 h [17]: 100; metabolised at 0.25 h, 5 µM [14]: 89%; Tmax [18]: 0.75 h; Kp at 6 h [19]: 550; half-life [20]: 3 h; Vd [11]: 1 L/kg; AUC [21]: 6 µM·h
COc1ccc2c(O[C@@H]3C[C@H]4C(=O)N[C@]5(C(=O)O)C[C@H]5/C=C\CCCCCN(C(=O)OC(C)(C)C)C(=O)[C@@H]4C3)cc(-c3ccccc3)nc2c1 | > 10 | 710 | 
C=C[C@@H]1C[C@]1(NC(=O)[C@@H]1C[C@@H](Oc2cc(-c3ccccc3)nc3cc(OC)ccc23)C[C@H]1C(=O)N[C@H](C(=O)N[C@H](C(=O)NC)C1CCCCC1)C(C)(C)C)C(=O)O |  | 22 | 
COc1ccc2c(O[C@@H]3C[C@H]4C(=O)N[C@]5(C(=O)O)C[C@H]5/C=C\CCCN(C(=O)OC(C)(C)C)C(=O)[C@@H]4C3)cc(-c3ccccc3)nc2c1 | > 10 | 130 | 
COc1ccc2c(O[C@@H]3C[C@H]4C(=O)N[C@]5(C(=O)NS(=O)(=O)C6(C)CC6)C[C@H]5/C=C\CCCCCC(=O)N4C3)cc(-c3nc(C(C)C)cs3)nc2c1C | 3.8 | 0.2 | Tmax [18]: 0.75 h; clearance [22]: 15.7 mL/min/kg; half-life [20]: 2.7 h; Vd [11]: 0.56 L/kg; Papp A→B [12]: 11.1 ×10⁻⁶ cm/s; Cmax [23]: 930 nM; bioavailability [24]: 31%
CCOc1cc(O[C@@H]2C[C@H]3C(=O)N[C@]4(C(=O)NS(=O)(=O)C5CC5)C[C@H]4/C=C\CCCCN(C)C(=O)[C@@H]3C2)c2ccc(OC)c(C)c2n1 | 4.3 |  | 
COc1ccc2c(O[C@@H]3C[C@H]4C(=O)N[C@]5(C(=O)NS(=O)(=O)C6CC6)C[C@H]5/C=C\COCCN(C)C(=O)[C@@H]4C3)cc(-c3ccccc3)nc2c1 | 320 |  | 
COc1ccc2c(O[C@@H]3C[C@H]4C(=O)N[C@]5(C(=O)NS(=O)(=O)C6CC6)C[C@H]5/C=C\CCCCN(NC(=O)OC(C)(C)C)C(=O)[C@@H]4C3)cc(-c3ccccc3)nc2c1 | 0.53 | 0.07 | 
COc1ccc2c(O[C@@H]3C[C@H]4C(=O)N[C@]5(C(=O)O)C[C@H]5/C=C\CCCCN(C(=O)OC(C)(C)C)C(=O)[C@@H]4C3)cc(-c3ccccc3)nc2c1 | > 10 | 31 | 
CCc1cnc(-c2ccc(C)cc2NC(=O)O[C@@H]2C[C@H]3C(=O)N[C@]4(C(=O)NS(=O)(=O)C5CC5)C[C@H]4/C=C\CCCCN(C)C(=O)[C@@H]3C2)s1 | 3.2 | 0.2 | Papp A→B [12]: 15 ×10⁻⁶ cm/s; microsomal CLint [13]: < 6 µL/min/mg
COc1ccc2c(O[C@H]3C[C@H]4C(=O)NCCCC/C=C\[C@@H]5C[C@@]5(C(=O)NS(=O)(=O)C5CC5)NC(=O)[C@@H]4C3)cc(-c3ccccc3)nc2c1 | 4.4 | 2.2 | 
C=C[C@@H]1C[C@]1(NC(=O)[C@@H]1C[C@@H](Oc2cc(-c3ccccc3)nc3cc(OC)ccc23)C=C1C(=O)N[C@H](C(=O)N[C@H](C(=O)NC)C1CCCCC1)C(C)(C)C)C(=O)O |  | 1.3 | 
